Laboratory results as given in BindingDB's records for patent US12473289 (Amgen, 2025).

biological target: Acyl-CoA (8-3)-desaturase (Homo sapiens, UniProt O60427); experiment: Inhibitory Activity using DGLA-CoA and Arachidonyl-CoA Mass Spectrometric Assays
Experimental: Membrane preparations of D5D-overexpressing HEK293 6E cells were prepared in which the total protein concentration was 5.6 mg/mL.

Chain of Acyl-CoA (8-3)-desaturase (O60427 whole entry): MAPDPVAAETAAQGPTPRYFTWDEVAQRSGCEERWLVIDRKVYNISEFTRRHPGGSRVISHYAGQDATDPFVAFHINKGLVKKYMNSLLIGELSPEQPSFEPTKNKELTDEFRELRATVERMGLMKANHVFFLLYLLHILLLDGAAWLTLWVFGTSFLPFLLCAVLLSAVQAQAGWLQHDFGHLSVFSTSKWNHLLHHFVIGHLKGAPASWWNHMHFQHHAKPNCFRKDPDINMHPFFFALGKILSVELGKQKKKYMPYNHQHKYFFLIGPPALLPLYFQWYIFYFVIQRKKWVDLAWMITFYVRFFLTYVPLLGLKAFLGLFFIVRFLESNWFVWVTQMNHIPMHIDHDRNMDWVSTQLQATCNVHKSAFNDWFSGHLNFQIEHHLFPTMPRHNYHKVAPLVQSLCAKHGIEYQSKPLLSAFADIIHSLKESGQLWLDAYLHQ

Row | SMILES | IC50 [nM]
1 | COc1ccn2c(=O)c(-c3cnn(-c4cccc(C(F)(F)F)c4)c3)c(C(F)(F)F)nc2c1 [US12473289, Example 1-19] | 345
2 | COC(=O)c1ccn2c(=O)c(-c3ccc(OCC(F)(F)F)cc3)c(C(F)(F)F)nc2c1 [US12473289, Example 1-36] | 199
3 | COc1ccn2c(=O)c(-c3ccc(OCC(F)(F)F)nc3)c(C(F)(F)F)nc2n1 [US12473289, Example 1-70] | 262
4 | O=c1ccn2c(=O)c(-c3cnn(CC(F)(F)C(F)(F)F)c3)c(C(F)(F)F)[nH]c2c1 [US12473289, Example 18] | 132
5 | O=c1c(-c2ccc(OCC(F)(F)F)cc2)c(C(F)(F)F)nc2cc(C(F)F)ccn12 [US12473289, Example 32] | 141
6 | COC1=CC2NC(C(F)(F)F)=C(C3C=NC(OCC(F)(F)F)=NC3)C(=O)N2C=C1 (stereo unspecified) [US12473289, Example 37] | 87.6
7 | O=C1C(C2C=NN(CC(F)(F)C(F)(F)F)C2)=C(C(F)(F)F)NC2C=C(OCCl)C=NN12 (stereo unspecified) [US12473289, Example 48] | 119

The next compounds have a lower IC50 than those just listed; values first:

Row | IC50 [nM] | SMILES
8 | 54.9 | COc1cc2nc(C(F)(F)F)c(-c3cnn(C[C@@H]4CC4(F)F)c3)c(=O)n2cc1F [US12473289, Example 72]
9 | 33.5 | O=C1C(C2C=NN(CC(F)(F)C(F)(F)F)C2)=C(C(F)(F)F)NC2C=C(OCF)C=NN12 (stereo unspecified) [US12473289, Example 47]
10 | 29.6 | O=c1c(-c2cnn(CCC(F)(F)F)c2)c(C(F)(F)F)nc2cc(OCF)ccn12 [US12473289, Example 17-3]
11 | 16.6 | O=C1C(C2C=NN(CC(F)(F)C(F)(F)F)C2)=C(C(F)(F)F)NC2C=C(OCCl)C=CN12 (stereo unspecified) [US12473289, Example 46]
12 | 13.1 | COc1ccn2c(=O)c(-c3ccc(OCC4CC4)cc3)c(C(F)(F)F)nc2n1 [US12473289, Example 1-37]
13 | 10.4 | CSc1ccn2c(=O)c(-c3ccc(OCC(F)(F)F)cc3)c(C(F)(F)F)nc2c1 [US12473289, Example 1-35]
14 | 10.1 | O=C1C(C2C=NN(CC(F)(F)C(F)(F)F)C2)=C(C(F)(F)F)NC2C=C(OCF)C=CN12 (stereo unspecified) [US12473289, Example 45]
15 | 6.8 | Nc1ccn2c(=O)c(-c3ccc(OCC(F)(F)F)cc3)c(C(F)(F)F)nc2c1 [US12473289, Example 6-2]
16 | 5.9 | COc1ccn2c(=O)c(-c3ccc(OC(F)(F)F)cc3F)c(C(F)(F)F)nc2c1 [US12473289, Example 1-9]
